{
  "source": "PubChem BioAssay (NCI)",
  "experiment_in_all_cases": "growth of human tumour cells (NCI), 48 h",
  "key": {"A498 renal": {"tested_on": "A498 renal"}, "HS 578T breast": {"tested_on": "HS 578T breast"}, "NCI-H226 lung": {"tested_on": "NCI-H226 lung"}, "NCI/ADR-RES ovarian": {"tested_on": "NCI/ADR-RES ovarian"}, "OVCAR-5 ovarian": {"tested_on": "OVCAR-5 ovarian"}, "PC-3 prostate": {"tested_on": "PC-3 prostate"}, "T-47D breast": {"tested_on": "T-47D breast"}, "ACHN renal": {"tested_on": "ACHN renal"}, "LOX IMVI melanoma": {"tested_on": "LOX IMVI melanoma"}, "SW-620 colon": {"tested_on": "SW-620 colon"}},
  "note": "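Each compound was tested at five concentrations against cells in 96-well plates for 48 hours. GI50 marks 50% less growth. The concentration for full growth arrest is given as TGI.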",
  "data": [
    {"molecule": "O=C1C[C@H](c2ccccc2)C2(C(=O)c3ccccc3C2=O)[C@@H](c2ccccc2)C1", "values": [
      {"measurement": "TGI", "setting": "A498 renal", "value": "> 100", "unit": "µM"},
      {"measurement": "TGI", "setting": "HS 578T breast", "value": "> 100", "unit": "µM"},
      {"measurement": "TGI", "setting": "NCI-H226 lung", "value": 69.1, "unit": "µM"},
      {"measurement": "TGI", "setting": "NCI/ADR-RES ovarian", "value": "> 100", "unit": "µM"},
      {"measurement": "TGI", "setting": "OVCAR-5 ovarian", "value": "> 100", "unit": "µM"},
      {"measurement": "TGI", "setting": "PC-3 prostate", "value": "> 100", "unit": "µM"},
      {"measurement": "TGI", "setting": "T-47D breast", "value": "> 100", "unit": "µM"}
    ]},
    {"molecule": "Oc1c(I)cc(I)cc1CNCCCN(Cc1ccccn1)Cc1ccccn1", "values": [
      {"measurement": "GI50", "setting": "A498 renal", "value": 0.661, "unit": "µM"},
      {"measurement": "TGI", "setting": "A498 renal", "value": 1.32, "unit": "µM"},
      {"measurement": "GI50", "setting": "ACHN renal", "value": 0.912, "unit": "µM"},
      {"measurement": "TGI", "setting": "ACHN renal", "value": 1.65, "unit": "µM"},
      {"measurement": "GI50", "setting": "HS 578T breast", "value": 1.38, "unit": "µM"},
      {"measurement": "TGI", "setting": "HS 578T breast", "value": 4.53, "unit": "µM"},
      {"measurement": "GI50", "setting": "LOX IMVI melanoma", "value": 0.926, "unit": "µM"},
      {"measurement": "TGI", "setting": "LOX IMVI melanoma", "value": 1.77, "unit": "µM"},
      {"measurement": "GI50", "setting": "NCI-H226 lung", "value": 0.902, "unit": "µM"},
      {"measurement": "TGI", "setting": "NCI-H226 lung", "value": 2, "unit": "µM"},
      {"measurement": "GI50", "setting": "NCI/ADR-RES ovarian", "value": 1.44, "unit": "µM"},
      {"measurement": "TGI", "setting": "NCI/ADR-RES ovarian", "value": 4.29, "unit": "µM"},
      {"measurement": "GI50", "setting": "OVCAR-5 ovarian", "value": 0.953, "unit": "µM"},
      {"measurement": "TGI", "setting": "OVCAR-5 ovarian", "value": 2.11, "unit": "µM"},
      {"measurement": "GI50", "setting": "PC-3 prostate", "value": 1.17, "unit": "µM"},
      {"measurement": "TGI", "setting": "PC-3 prostate", "value": 3.02, "unit": "µM"},
      {"measurement": "GI50", "setting": "SW-620 colon", "value": 1.04, "unit": "µM"},
      {"measurement": "TGI", "setting": "SW-620 colon", "value": 2.41, "unit": "µM"},
      {"measurement": "GI50", "setting": "T-47D breast", "value": 1.49, "unit": "µM"},
      {"measurement": "TGI", "setting": "T-47D breast", "value": 5.83, "unit": "µM"}
    ]},
    {"molecule": "COc1ccc(C2C(C(=O)O)=C(COC(C)=O)Oc3cc4c(cc32)OCO4)cc1", "note": "(stereo not given)", "values": [
      {"measurement": "TGI", "setting": "ACHN renal", "value": "> 100", "unit": "µM"},
      {"measurement": "TGI", "setting": "LOX IMVI melanoma", "value": "> 100", "unit": "µM"},
      {"measurement": "TGI", "setting": "SW-620 colon", "value": "> 100", "unit": "µM"}
    ]}
  ]
}
